Entries after “also recorded” stand apart in the source; their conditions may differ.
System: Jurkat cells
Assay: Calibration of sodium indicator fluorescence response in cells (flow cytometry)
Format: cell-based
Conditions: Jurkat cells loaded with 5 µM for 30 minutes at 37 °C, 2 µM gramicidin, extracellular Na+ 0-145 mM, excitation at 488 nm
Method: Example 3: Calibration of sodium indicator fluorescence response in cells.
Jurkat cells were loaded with a 5 µM solution of either Compound 25 (a compound according to Formula (I) as shown below), or commercially available SODIUM GREEN tetraacetate indicator (Molecular Probes, Inc., Eugene, OR) and 10 µM for Compound 87 (Example 9) for 30 minutes at 37 °C. The use of PLURONIC dispersing agent helped dissolve the selected indicator. Intracellular sodium concentrations were then established by varying the sodium concentration of the extracellular buffer in the presence of 2 µM gramicidin (a sodium-pore forming antibiotic). The extracellular buffer was set at 0 mM, 10 mM, 20 mM, 50 mM, 100 mM, and 145 mM, respectively. Intracellular fluorescence response of the selected indicators was measured using a FACSCAN flow cytometer and associated software, with fluorescence excitation at 488 nm.

Structure (SMILES): CC(=O)OCOC(=O)CN1CCOCCN(CC(=O)OCOC(C)=O)c2ccc(-c3c4cc(F)c(=O)cc-4oc4cc(OCOC(C)=O)c(F)cc34)cc2OCCOc2cc(C)ccc21 [Compound 25]
- intracellular fluorescence intensity as intracellular Na^+ concentration was increased: consistent increase in fluorescence intensity
- intracellular fluorescence intensity compared with SODIUM GREEN indicator (Figure 3): substantially brighter intracellular fluorescence intensity than the SODIUM GREEN indicator; also recorded: stronger fluorescence intensity than SODIUM GREEN sodium indicator
